Assay results taken from ChEMBL document CHEMBL1201862, “PubChem BioAssay data set” (2004).
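Dose response: 5 concentrations. Exposure: 48 h. Format: 96-well plates. Endpoint: linear interpolation; highest concentration if not reached. GI50 = concentration required for 50% inhibition of growth.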 Active and inactive are the calls of the source. No stated cut-off is given here; in the data, active = GI50 up to about 1.1 µM and inactive = higher. Square brackets hold non-standard residues; d marks the D form. Peptide text beside a SMILES is read from it. * marks the point of attachment. ξ: configuration not given here. Propanoyl(3-(4-MeO-Ph)) = COc1ccc(CCC(=O)*)cc1; Thr(3ξ) = CC(O)[C@H](N)C(=O)O; dNMeL = CN[C@H](CC(C)C)C(=O)O; ξLac = CC(O)C(=O)O

What was measured:
Assay in all cases: growth of human tumour cells (NCI), 48 h
SK-MEL-28 = system: SK-MEL-28
NCI-H23 = system: NCI-H23
OVCAR-8 = system: OVCAR-8
SNB-19 = system: SNB-19
SW-620 = system: SW-620
U-251 = system: U-251
HT-29 = system: HT-29
K562 = system: K562
786-0 = system: 786-0
NCI-H460 = system: NCI-H460
SK-MEL-2 = system: SK-MEL-2
OVCAR-5 = system: OVCAR-5
MDA-N = system: MDA-N
HOP-92 = system: HOP-92
HCC 2998 = system: HCC 2998
TK-10 = system: TK-10
RPMI-8226 = system: RPMI-8226
DU-145 = system: DU-145
Malme-3M = system: Malme-3M
MDA-MB-435 = system: MDA-MB-435

SMILES | GI50 (SK-MEL-28) | GI50 (NCI-H23) | GI50 (OVCAR-8) | GI50 (SNB-19) | GI50 (SW-620) | GI50 (U-251) | GI50 (HT-29) | GI50 (K562) | GI50 (786-0) | GI50 (NCI-H460) | GI50 (SK-MEL-2) | GI50 (OVCAR-5) | GI50 (MDA-N) | GI50 (HOP-92) | GI50 (HCC 2998) | GI50 (TK-10) | GI50 (RPMI-8226) | GI50 (DU-145) | GI50 (Malme-3M) | GI50 (MDA-MB-435)
CC(C)(CN)CN | > 100 µM (inactive) | > 100 µM (inactive) | > 100 µM (inactive) | > 100 µM (inactive) | > 100 µM (inactive) | > 100 µM (inactive) | > 100 µM (inactive) | > 100 µM (inactive) | > 100 µM (inactive) | > 100 µM (inactive) | > 100 µM (inactive) | > 100 µM (inactive) | > 100 µM (inactive) | > 100 µM (inactive) | > 100 µM (inactive) | > 100 µM (inactive) | > 100 µM (inactive) | > 100 µM (inactive) | > 100 µM (inactive) | > 100 µM (inactive)
COc1ccc(Br)c(/C=N\c2cccc3cc(OC)c(OC)cc23)c1 | 13.3 µM (inactive) | 32.8 µM (inactive) | 6.28 µM (inactive) | 13.2 µM (inactive) | 7.08 µM (inactive) | 2.99 µM (inactive) | 20 µM (inactive) | 3.52 µM (inactive) | 13.7 µM (inactive) | 35.5 µM (inactive) | 42.3 µM (inactive) | 72.1 µM (inactive) | 3.44 µM (inactive) | 20.2 µM (inactive) | 28.4 µM (inactive) | 28.1 µM (inactive) | 3.44 µM (inactive) | 52.1 µM (inactive) | 34 µM (inactive) | 2.8 µM (inactive)
O=c1[nH]/c(=C/c2ccc(OCc3ccccc3)cn2)c(=O)[nH]/c1=C/c1ccc(Cl)cc1 | > 76.7 µM (inactive) | 7.87 µM (inactive) | > 100 µM (inactive) | 5.55 µM (inactive) | 1.55 µM (inactive) | 4.35 µM (inactive) | 2.8 µM (inactive) | 0.497 µM (active) | 1.83 µM (inactive) | 1.79 µM (inactive) | 4.73 µM (inactive) | > 100 µM (inactive) | 0.215 µM (active) | 13.9 µM (inactive) | 2.52 µM (inactive) | 15.1 µM (inactive) | 3.81 µM (inactive) | > 23.9 µM (inactive) | 0.624 µM (active) | 0.21 µM (active)
CC1(C)[C@@H]2C[C@H]1c1cnc(-c3ccccn3)cc1[C@H]2C(O)[C@@H]1c2cc(-c3ccccn3)ncc2[C@H]2C[C@@H]1C2(C)C (stereo partly drawn) | 0.47 µM (active) | 0.189 µM (active) | 0.124 µM (active) | 0.301 µM (active) | 0.17 µM (active) | 0.0741 µM (active) | 0.112 µM (active) | 0.124 µM (active) | 0.0451 µM (active) | 0.0472 µM (active) | 0.428 µM (active) | 1.11 µM (active) | 0.627 µM (active) | 0.322 µM (active) | 0.993 µM (active) | 2.14 µM (inactive) | 0.0893 µM (active) | 0.125 µM (active) | 0.218 µM (active) | 1 µM (active)
N#Cc1c(-c2ccc(Cl)cc2)cc(-c2ccc(Nc3ccnc4cc(C(F)(F)F)ccc34)cc2)[nH]c1=O | 8.49 µM (inactive) | > 45 µM (inactive) | 38.3 µM (inactive) | 9.73 µM (inactive) | 14 µM (inactive) | 2.63 µM (inactive) | 7.13 µM (inactive) | 3.52 µM (inactive) | 12.4 µM (inactive) | > 100 µM (inactive) | 57.4 µM (inactive) | > 40.5 µM (inactive) | 3.53 µM (inactive) | 17.1 µM (inactive) | > 100 µM (inactive) | 24.4 µM (inactive) | 21.1 µM (inactive) | 22.9 µM (inactive) | 14.1 µM (inactive) | 3.33 µM (inactive)
O=[N+]([O-])c1cc(Cl)ccc1S(=O)(=O)c1cc(Cl)cc2c1NCCC2 | 35.8 µM (inactive) |  | 56.6 µM (inactive) | > 100 µM (inactive) | > 100 µM (inactive) |  | 45.6 µM (inactive) | 24.5 µM (inactive) | > 100 µM (inactive) | 55.1 µM (inactive) | > 100 µM (inactive) | > 100 µM (inactive) | 39.3 µM (inactive) | 54.6 µM (inactive) | > 100 µM (inactive) | > 100 µM (inactive) | > 100 µM (inactive) | > 100 µM (inactive) | > 100 µM (inactive) | 39.6 µM (inactive)
O=c1[nH]c2ccccc2nc1CBr | 12.1 µM (inactive) | 14.6 µM (inactive) | 13.8 µM (inactive) | 23.5 µM (inactive) | 4.19 µM (inactive) | 9.98 µM (inactive) | 6.24 µM (inactive) | 2.24 µM (inactive) | 2.02 µM (inactive) | 11.4 µM (inactive) | 8.24 µM (inactive) | 17.7 µM (inactive) | 12 µM (inactive) | 3.39 µM (inactive) | 20.6 µM (inactive) | 13.8 µM (inactive) | 2.06 µM (inactive) | 19.2 µM (inactive) | 2.74 µM (inactive) | 12.3 µM (inactive)
COc1ccc(\N=C/C=C/C(=C/COC(C)=O)OC(C)=O)cc1 | 26.9 µM (inactive) | 16.8 µM (inactive) | 14.4 µM (inactive) | 58.6 µM (inactive) | 10.2 µM (inactive) | 25.9 µM (inactive) | 23.2 µM (inactive) | 4.89 µM (inactive) | 23 µM (inactive) | 34.5 µM (inactive) | 16.7 µM (inactive) | 40.5 µM (inactive) | 9.38 µM (inactive) | 20.5 µM (inactive) | > 100 µM (inactive) | 37.2 µM (inactive) | 5.48 µM (inactive) | 39.4 µM (inactive) | 31.2 µM (inactive) | 18.8 µM (inactive)
COC(=O)[C@@H](NC(=O)[C@@H](CC(C)C)N(C)C(=O)[C@@H]1CCCN1C(=O)C(C)O)C(C)OC(=O)CCc1ccc(OC)cc1 (stereo partly drawn) (H-[ξLac]P[dNMeL][Thr(3ξ)](Propanoyl(3-(4-MeO-Ph)))-OMe) | > 100 µM (inactive) | > 100 µM (inactive) | > 100 µM (inactive) | > 100 µM (inactive) | > 100 µM (inactive) | > 100 µM (inactive) | > 100 µM (inactive) | > 100 µM (inactive) | > 100 µM (inactive) | > 100 µM (inactive) | > 100 µM (inactive) | > 100 µM (inactive) | > 100 µM (inactive) | > 100 µM (inactive) | > 100 µM (inactive) | > 100 µM (inactive) | > 100 µM (inactive) | > 100 µM (inactive) | > 100 µM (inactive) | > 100 µM (inactive)
C=C1C(=O)C23CC1CCC2C12CO[C@@]3(O)[C@@H](O)C1C(C)(C)C=CC2=O (stereo partly drawn) | 0.738 µM (active) | 0.752 µM (active) | 0.16 µM (active) | 1.41 µM (inactive) | 2.93 µM (inactive) | 1.49 µM (inactive) | 0.234 µM (active) | 1.53 µM (inactive) | 0.653 µM (active) | 0.713 µM (active) | 0.925 µM (active) | 4.76 µM (inactive) | 2.98 µM (inactive) | 0.785 µM (active) | 1.15 µM (inactive) | 0.893 µM (active) | 0.75 µM (active) | 23.4 µM (inactive) | 0.755 µM (active) | 3.78 µM (inactive)
Nc1nc(Cl)cc(NCC2(O)CCC2)n1 | > 100 µM (inactive) | > 100 µM (inactive) | > 100 µM (inactive) |  | > 100 µM (inactive) | > 100 µM (inactive) | > 100 µM (inactive) | > 100 µM (inactive) | > 100 µM (inactive) | > 100 µM (inactive) | > 100 µM (inactive) | > 100 µM (inactive) | > 100 µM (inactive) | > 100 µM (inactive) | > 100 µM (inactive) | > 100 µM (inactive) | > 100 µM (inactive) | > 100 µM (inactive) | > 100 µM (inactive) | > 100 µM (inactive)
CCOC(=O)C(=Cc1[nH]c2ccccc2c1-c1c[nH]c2ccccc12)C(=O)OCC |  | 15.3 µM (inactive) | 11.3 µM (inactive) | 14.2 µM (inactive) |  | 11.7 µM (inactive) | 5 µM (inactive) | 4.12 µM (inactive) | 2.75 µM (inactive) | 12.6 µM (inactive) | 11.7 µM (inactive) | 15.1 µM (inactive) | 13.3 µM (inactive) | 11 µM (inactive) | 11.6 µM (inactive) | 12.7 µM (inactive) | 2.84 µM (inactive) | 14.1 µM (inactive) | 18.7 µM (inactive) | 5.96 µM (inactive)
NC(=O)C/C=C/CC(N)=O | > 100 µM (inactive) | > 100 µM (inactive) | > 100 µM (inactive) | > 100 µM (inactive) | > 100 µM (inactive) | > 100 µM (inactive) | > 100 µM (inactive) |  | > 100 µM (inactive) | > 100 µM (inactive) | > 100 µM (inactive) | > 100 µM (inactive) | > 100 µM (inactive) | > 100 µM (inactive) | > 100 µM (inactive) | > 100 µM (inactive) | > 100 µM (inactive) | > 100 µM (inactive) | > 100 µM (inactive) | > 100 µM (inactive)
O=C(NC(=O)c1ccccc1[N+](=O)[O-])Nc1ccc(Oc2ncc(Cl)cn2)c([N+](=O)[O-])c1 |  | 0.411 µM (active) | 1.78 µM (inactive) | 2.02 µM (inactive) | 0.106 µM (active) | 0.255 µM (active) | 0.147 µM (active) | 0.0339 µM (active) | 0.225 µM (active) | 0.198 µM (active) | 0.127 µM (active) | 0.875 µM (active) | 0.0227 µM (active) | 0.27 µM (active) | 0.426 µM (active) | > 100 µM (inactive) | 0.187 µM (active) | 0.291 µM (active) | 0.061 µM (active) | 0.0214 µM (active)
